# Assay results reported in patent EP0641564A1, “OPTICALLY ACTIVE CONDENSED PYRAZOLE COMPOUND FOR USE IN TREATING THROMBOCYTOPENIA AND ERYTHROPENIA” (YOSHITOMI PHARMACEUTICAL INDUSTRIES, LTD., priority 1992, dated 1993).
# Experiments:
# [1] = test system: mice transplanted with bone marrow; experiment: Promoting action on recovery of leukocyte count in mice transplanted with bone marrow; format: in vivo, ICR mice; details: for Leukocyte count: X-irradiation (8.0 Gy)+bone marrow transplantation (day 0, 7, 14); for Leukocyte count / Increase in leukocyte count: day 38; for Increase in leukocyte count: relative ratio of increased count to decreased count of bone marrow transplanted mice
# Procedure: Experimental Example 8 : Promoting action on recovery of leukocyte count in mice transplanted with bone marrow
# ICR mice (6-8 weeks old) were exposed to 8.0 Gy total body irradiation and 10⁷ bone marrow cells from the mice of the same species were transplanted to the mice. The bone marrow transplantation was performed three times on day 0, day 7 and day 14. Then, the compound of the present invention was intravenously administered for 14 consecutive days starting from the next day of the first bone marrow transplantation. On day 38 after the first bone marrow transplantation, blood was taken and leukocyte count was measured using an automatic cell counter. The experiment was done with 5 mice per group. The relative ratio of the increased leukocyte count to the decreased leukocyte count of the mice transplanted with bone marrow was calculated and expressed in percentage.
# [2] = test system: mice irradiated with X-rays; experiment: Promoting action on recovery of erythrocyte count in mice irradiated with X-rays (preventive effects); format: in vivo, BALB/c mice; details: mean±SD
# Procedure: Experimental Example 3 : Promoting action on recovery of erythrocyte count in mice irradiated with X-rays (preventive effects)
# BALB/c mice (4-5 weeks old) were exposed to 4.0 Gy total body irradiation. Compound A was intravenously administered for 3 consecutive days starting from 3 days before and up to the previous day of the irradiation. On day 19 and day 22 after the X-ray irradiation, blood was taken from orbital vein plexus of mice and erythrocyte count was measured using an automatic cell counter. The experiment was done with 8 mice per group and the results are shown as mean value±standard deviation.
# [3] = test system: mice irradiated with X-rays; experiment: Promoting action on recovery of erythrocyte count in mice irradiated with X-rays (therapeutic effects); format: in vivo, BALB/c mice; details: day 14, mean±SD
# Procedure: Experimental Example 4 : Promoting action on recovery of erythrocyte count in mice irradiated with X-rays (therapeutic effects)
# BALB/c mice (4-5 weeks old) were exposed to 4.0 Gy total body irradiation. Compound A was intravenously administered for 9 consecutive days starting from the next day of the X-ray irradiation to 9 days thereafter. On day 14 after the X-ray irradiation, blood was taken from orbital vein plexus of mice and erythrocyte count was measured using an automatic cell counter. The experiment was done with 6 mice per group and the results are shown as mean value±standard deviation.
# [4] = test system: rats administered with anti-tumor drug; experiment: Promoting action on recovery of decreased platelet count in rats administered with anti-tumor drug (nimustine hydrochloride); format: in vivo, SD rats; details: 1.0 mg/kg i.v. on day 8, 9, 10 and 14 after initial nimustine hydrochloride
# Procedure: Experimental Example 2 : Promoting action on recovery of decreased platelet count in rats administered with anti-tumor drug
# An anti-tumor drug, nimustine hydrochloride, (30 mg/kg) was intravenously administered to SD rats (6 weeks old) and 15 mg/kg thereof was intravenously administered the next day. Compound A was intravenously administered for 4 days on day 8, day 9, day 10 and day 14 after the initial administration of nimustine hydrochloride. On certain days after the administration, heparinized blood was taken from the rat tail vein and platelet count was measured using an automatic cell counter. The experiment was done with 4-6 rats per group.
# [5] = test system: mice transplanted with bone marrow; experiment: Promoting action on recovery of erythrocyte count in mice transplanted with bone marrow; format: in vivo, ICR mice; details: X-irradiation (8.0 Gy)+bone marrow transplantation, day 11
# Text: Experimental Example 5 : Promoting action on recovery of erythrocyte count in mice transplanted with bone marrow
# (§1) ICR mice (6-8 weeks old) were exposed to 8.0 Gy total body irradiation and 10⁷ bone marrow cells from the mice of the same species were transplanted to the mice. Then, Compound A was intravenously administered for 9 consecutive days starting from the next day of the bone marrow transplantation. On day 11 after the bone marrow transplantation, heparinized blood was taken from the abdominal aorta of mice and erythrocyte count was measured using an automatic cell counter. The experiment was done with 5 mice per group.
# [6] = test system: mice transplanted with bone marrow; experiment: Promoting action on recovery of platelet count in mice transplanted with bone marrow; format: in vivo, ICR mice; details: day 11; for Platelet count: X-irradiation (8.0 Gy)+bone marrow transplantation; for Increase in platelet count: difference between untreated group and bone marrow transplanted group = 100%
# Text: Experimental Example 1 : Promoting action on recovery of platelet count in mice transplanted with bone marrow
# as §1, with “A or Compound B” for “A”, “platelet” for “erythrocyte”, “group. The difference in platelet count between an untreated group and the bone marrow transplanted group was taken as 100%, based on which increase in the platelet count was calculated.” for “group.”
# rats = experiment: Acute toxicity test; format: in vivo; details: orally administered to rats, dose of 1000 mg/kg
# Procedure: Experimental Example 9 : Acute toxicity test
# Compound A, Compound B or Compound C was orally administered to rats. As a result, no death case was found at a dose of 1000 mg/kg.
# [7] = test system: mice administered with cyclophosphamide; experiment: Stimulating action on recovery of leukocyte count (cyclophosphamide-treated mice); format: in vivo, ICR mice; details: for Leukocyte count: cyclophosphamide 200 mg/kg i.p., day 4; for Increase in leukocyte count: relative ratio to count of mice administered with cyclophosphamide (=100)
# Procedure: Experimental Example 7 : Stimulating action on recovery of leukocyte count
# ICR mice (20-25 g body weight) were intraperitoneally administered with 200 mg/kg of cyclophosphamide and the compound of the present invention was intravenously administered for 3 days starting from the next day of the administration. On day 4 after the cyclophosphamide administration, the blood of the ICR mice was taken and leukocyte count was measured using Coulter counter. The relative ratio of the count to the peripheral leukocyte count of the mice administered with cyclophosphamide was calculated and expressed in percentage.
# [8] = 0.01 mg/kg i.v. for 14 consecutive days
# [9] = 0.1 mg/kg i.v. for 14 consecutive days
# [10] = 0.01 mg/kg i.v. for 3 consecutive days before 4.0 Gy irradiation
# [11] = 0.1 mg/kg i.v. for 3 consecutive days before 4.0 Gy irradiation
# [12] = 1 mg/kg i.v. for 3 consecutive days before 4.0 Gy irradiation
structure (smiles),measurement,setting,value
"CC(CN(C)C)Oc1ccc(-c2nn(CC(=O)O)c3ncccc23)cc1 (stereo not drawn) [Comp. A, 3-[4-(2-dimethylamino-1-methylethoxy)phenyl]-1H-pyrazolo[3,4-b]pyridine-1-acetic acid]",Leukocyte count,[1]; [8],65±7 10²/mm³
same,Increase in leukocyte count,[1]; 0.01 mg/kg i.v.,30%
same,Leukocyte count,[1]; [9],75±5 10²/mm³
same,Increase in leukocyte count,[1]; 0.1 mg/kg i.v.,46%
same,Leukocyte count,[1]; 1 mg/kg i.v. for 14 consecutive days,81±4 10²/mm³
same,Increase in leukocyte count,[1]; 1 mg/kg i.v.,56%
same,Erythrocyte count day 19,[2]; [10],835±102 10⁴/mm³
same,Erythrocyte count day 22,[2]; [10],904±45 10⁴/mm³
same,Erythrocyte count day 19,[2]; [11],837±118 10⁴/mm³
same,Erythrocyte count day 22,[2]; [11],916±86 10⁴/mm³
same,Erythrocyte count day 19,[2]; [12],856±118 10⁴/mm³
same,Erythrocyte count day 22,[2]; [12],932±86 10⁴/mm³
same,Erythrocyte count,[3]; 0.01 mg/kg i.v. for 9 consecutive days after 4.0 Gy irradiation,535±98 10⁴/mm³
same,Erythrocyte count,[3]; 0.1 mg/kg i.v. for 9 consecutive days after 4.0 Gy irradiation,686±72 10⁴/mm³
same,Platelet count day 25,[4]; day 25,17.7±21.8 10⁴/mm³
same,Platelet count day 44,[4]; day 44,57.3±20.2 10⁴/mm³
same,Erythrocyte count,[5]; 0.01 mg/kg i.v. for 9 consecutive days,699±51 10⁴/mm³
same,Erythrocyte count,[5]; 0.1 mg/kg i.v. for 9 consecutive days,714±56 10⁴/mm³
same,Platelet count,"[6]; Table 1, 0.01 mg/kg i.v. for 9 consecutive days",27.4±9.6 10⁴/mm³
same,Increase in platelet count,"[6]; Table 1, 0.01 mg/kg i.v.",30%
same,Platelet count,"[6]; Table 1, 0.03 mg/kg i.v. for 9 consecutive days",31.4±11.4 10⁴/mm³
same,Increase in platelet count,"[6]; Table 1, 0.03 mg/kg i.v.",41%
same,Platelet count,"[6]; Table 1, 0.1 mg/kg i.v. for 9 consecutive days",42.3±10.6 10⁴/mm³
same,Increase in platelet count,"[6]; Table 1, 0.1 mg/kg i.v.",71%
same,Platelet count,"[6]; Table 1, 0.3 mg/kg i.v. for 9 consecutive days",49.8±9.7 10⁴/mm³
same,Increase in platelet count,"[6]; Table 1, 0.3 mg/kg i.v.",91%
same,death cases (acute toxicity),rats,no death case
same,Leukocyte count,[7]; 0.01 mg/kg i.v. for 3 days,18±8 10²/mm³
same,Increase in leukocyte count,[7]; 0.01 mg/kg i.v.,164%
same,Leukocyte count,[7]; 0.1 mg/kg i.v. for 3 days,25±6 10²/mm³
same,Increase in leukocyte count,[7]; 0.1 mg/kg i.v.,227%
same,Leukocyte count,[7]; 1 mg/kg i.v. for 3 days,30±6 10²/mm³
same,Increase in leukocyte count,[7]; 1 mg/kg i.v.,273%
"CCOC(=O)Cn1nc(-c2ccc(O[C@@H](C)CN(C)C)cc2)c2cccnc21.Cl [Compound C, ethyl (S)-3-[4-(2-dimethylamino-1-methylethoxy)phenyl]-1H-pyrazolo[3,4-b]pyridine-1-acetate hydrochloride]",death cases (acute toxicity),rats,no death case
"C[C@@H](CN(C)C)Oc1ccc(-c2nn(CC(=O)O)c3ncccc23)cc1 [Comp. B, (S)-3-[4-(2-dimethylamino-1-methylethoxy)phenyl]-1H-pyrazolo[3,4-b]pyridine-1-acetic acid]",Leukocyte count,[1]; [8],76±10 10²/mm³
same,Increase in leukocyte count,[1]; 0.01 mg/kg i.v.,48%
same,Leukocyte count,[1]; [9],89±6 10²/mm³
same,Increase in leukocyte count,[1]; 0.1 mg/kg i.v.,69%
same,strength of leukocyte count recovery effect relative to Compound A,"[1]; bone marrow transplanted mice, comparison from Table 8",about ten times stronger effect
same,Platelet count,"[6]; Table 2, 0.01 mg/kg i.v. for 9 consecutive days",45.9±6.7 10⁴/mm³
same,Increase in platelet count,"[6]; Table 2, 0.01 mg/kg i.v.",65%
same,Platelet count,"[6]; Table 2, 0.03 mg/kg i.v. for 9 consecutive days",54.8±13.6 10⁴/mm³
same,Increase in platelet count,"[6]; Table 2, 0.03 mg/kg i.v.",81%
same,death cases (acute toxicity),rats,no death case
same,Leukocyte count,[7]; 0.003 mg/kg i.v. for 3 days,19±5 10²/mm³
same,Increase in leukocyte count,[7]; 0.003 mg/kg i.v.,173%
same,Leukocyte count,[7]; 0.03 mg/kg i.v. for 3 days,27±5 10²/mm³
same,Increase in leukocyte count,[7]; 0.03 mg/kg i.v.,245%
same,Leukocyte count,[7]; 0.3 mg/kg i.v. for 3 days,30±6 10²/mm³
same,Increase in leukocyte count,[7]; 0.3 mg/kg i.v.,273%
same,strength of leukocyte count recovery effect relative to Compound A,"[7]; cyclophosphamide-pretreated mice, comparison from Table 7",about three times stronger effect
